Test systems include BT-549; CAKI-1; COLO 205; DU-145; HCT-116; HL-60; HOP-62; HOP-92; HT-29; Hs-578T; K562; M14; MCF7; NCI-H226; NCI-H460; RPMI-8226; SF-268; SK-MEL-28; SK-MEL-5; SW-620.
Experiment in all cases: DTP human tumour cell line panel, 48 h

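Test compounds were applied to cells in 96-well plates for 48 hours at 5 doses. The concentration for 50% growth inhibition is given as GI50.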 Active and inactive are the calls of the source. Rule as the data show it: active = GI50 up to about 1.1 µM and inactive = higher.

Broadly, the GI50 is the concentration giving 50% growth inhibition. On to `CCOC(=O)/C(=N\Nc1ccc(-n2c(C)nc3ccc(Br)cc3c2=O)cc1)C(C)=O`, for which the GI50 with BT-549 was 47 µM (inactive); in the assay on CAKI-1, > 100 µM (inactive); in the assay with COLO 205, 54.3 µM (inactive); in the assay on DU-145 it was > 100 µM (inactive); in the assay with HCT-116 it was 43.6 µM (inactive); in the assay with HL-60, 5.32 µM (inactive). The GI50 with HOP-62 was 42.8 µM (inactive); in the assay with HOP-92 it was 38 µM (inactive); with HT-29 it was > 100 µM (inactive); with Hs-578T, 29.1 µM (inactive); with K562, 35.2 µM (inactive); in the assay with M14, 62.4 µM (inactive). Besides, the GI50 is 50.4 µM (inactive) in the assay on MCF7; 77.8 µM (inactive) with NCI-H226; 99.3 µM (inactive) in the assay on NCI-H460; 16.4 µM (inactive) in the assay with RPMI-8226; 67.6 µM (inactive) in the assay on SF-268; 88.7 µM (inactive) in the assay on SK-MEL-28. Besides, the figures for the GI50 in the assay with SK-MEL-5 and with SW-620 were 13.1 µM (inactive) and > 100 µM (inactive), respectively.

Take `O=c1cc(CN2CCCCC2)nc2ccc3c(O)cc(CN4CCCCC4)nc3n12`: the GI50 with BT-549, in the assay on CAKI-1, in the assay with COLO 205, in the assay with DU-145, in the assay with HCT-116 and with HL-60 was > 100 µM (inactive) each time. Besides, the GI50 in the assay with HOP-62 is > 100 µM (inactive); with HOP-92, 26.2 µM (inactive); in the assay on HT-29, > 100 µM (inactive); in the assay with Hs-578T it was > 100 µM (inactive); in the assay with K562, > 100 µM (inactive); in the assay with M14, > 100 µM (inactive). In addition, the GI50 in the assay with MCF7, in the assay with NCI-H226, with NCI-H460, in the assay with RPMI-8226, with SF-268 and in the assay on SK-MEL-28 was > 100 µM (inactive) in each case. Also, the GI50 with SK-MEL-5 and in the assay with SW-620 was > 100 µM (inactive) in each case.

`CCCc1nnc2sc(COc3ccc(OCc4nn5c(CCC)nnc5s4)c(Cl)c3)nn12`: the GI50 with BT-549 is 23.9 µM (inactive); with CAKI-1, 19.1 µM (inactive); in the assay with COLO 205, 23.2 µM (inactive); in the assay with DU-145 it was 24.8 µM (inactive); with HCT-116 it was 27 µM (inactive); in the assay with HL-60, 14.8 µM (inactive). The GI50 in the assay on HOP-62 was 47.8 µM (inactive); in the assay on HOP-92, 20.4 µM (inactive); in the assay on HT-29, 29.4 µM (inactive); with Hs-578T, 47 µM (inactive); in the assay with K562, 32.1 µM (inactive); with M14, 21.9 µM (inactive). Besides, the GI50 in the assay on MCF7 was 20.9 µM (inactive); in the assay with NCI-H226, > 100 µM (inactive); in the assay on NCI-H460 it was 23.3 µM (inactive); in the assay with RPMI-8226, 19.5 µM (inactive); with SF-268 it was 23 µM (inactive); in the assay with SK-MEL-28, 26.1 µM (inactive). Besides, the GI50 in the assay with SK-MEL-5 was 7.35 µM (inactive); with SW-620, 40.3 µM (inactive).

Turning to `Clc1cc(Cl)nc(Nc2ccc3c(c2)CCC3)n1`, the GI50 is 48.6 µM (inactive) with BT-549; 28.2 µM (inactive) in the assay on CAKI-1; 24 µM (inactive) with COLO 205; 61.2 µM (inactive) with DU-145; 28.6 µM (inactive) in the assay on HCT-116; 36.7 µM (inactive) in the assay on HL-60. For the same compound, the GI50 in the assay with HOP-92 was 32.8 µM (inactive); with HT-29, 22 µM (inactive); with Hs-578T, 28.4 µM (inactive); in the assay with K562 it was 20.6 µM (inactive); in the assay with M14 it was 42.9 µM (inactive); in the assay with MCF7, 20.5 µM (inactive). The GI50 in the assay on NCI-H226 was 45 µM (inactive); in the assay with NCI-H460, 30.4 µM (inactive); in the assay on RPMI-8226, 16.5 µM (inactive); in the assay with SF-268, 44.8 µM (inactive); in the assay on SK-MEL-28, 37.7 µM (inactive); with SK-MEL-5, 23.8 µM (inactive). Besides, the GI50 in the assay with SW-620 is 46.6 µM (inactive).

As for `COc1cc2c(c(OC)c1OC)-c1ccc(SC)cc1[C@H](OC(=O)c1ccccc1)CC2`, the GI50 in the assay with BT-549 is 0.309 µM (active); in the assay on CAKI-1, 0.407 µM (active); with COLO 205, 0.188 µM (active); in the assay with DU-145, 0.203 µM (active); in the assay on HCT-116 it was 0.0817 µM (active); in the assay on HL-60 it was 0.146 µM (active). Besides, the GI50 in the assay on HOP-92 was 0.286 µM (active); with HT-29, 0.122 µM (active); in the assay on Hs-578T, 0.132 µM (active); with K562, 0.0849 µM (active); in the assay on M14, 0.0519 µM (active); with MCF7, 0.0311 µM (active). Also, the GI50 is 0.237 µM (active) in the assay with NCI-H226; 0.149 µM (active) in the assay with NCI-H460; 0.0424 µM (active) in the assay with RPMI-8226; 0.214 µM (active) with SF-268; 0.0571 µM (active) with SK-MEL-28; 0.0697 µM (active) with SK-MEL-5. Also, the GI50 with SW-620 was 0.0313 µM (active).

The values are drawn from ChEMBL document CHEMBL1201862, “PubChem BioAssay data set” (2004).
